Consider four molecules from paper PMC12349723, “Computationally accelerated identification of P-glycoprotein inhibitors” (PLOS One, 2025).

In series [1] the test system is HFL1 (human lung fibroblast) cell line. As to the kind of experiment: MTT viability assay, inherent toxicity in non-cancerous HFL1 cells. Type of series: cell-based. Details: Mean % Survival: tested at 15 µM. The settings on record: for Inherent toxicity to non-cancerous HFL1 cells: 15 µM compound, 48 h, MTT, 20% reduction in viability = maximum acceptable toxicity; for Mean % Survival / % Survival (individual sample): HFL1 cells, compound alone; for Mean % Survival: mean of 8 samples; for % Survival (individual sample): single samples (trials 1-2, samples 1-4). The protocol:
The chemotherapeutic sensitive DU145 human prostate cancer cells and the multidrug resistant sub-line, DU145-TXR, were generous gifts from Dr. Evan Keller (University of Michigan, Ann Arbor, MI). The MDR, P-gp overexpressing DU145-TXR cells were maintained under positive selection pressure by supplementing complete medium with 10 nM paclitaxel (Acros Organics, NJ). […] The MDR, P-gp overexpressing A2780-ADR cell line was maintained under positive selection pressure by supplementing complete medium with 100 nM doxorubicin (Fisher Scientific, NJ). The non-cancerous HFL1 (human lung fibroblast) cell line cell line was a generous gift from Dr. Robert Harrod (Southern Methodist University, Dallas, TX) and was maintained in complete F12K media consisting of F12K with 10% fetal bovine serum, 100 U/mL penicillin, and 100 µg/mL streptomycin (Gibco). Flasks and 96 well plates that were used with the non-cancerous line HFL1 were pre-treated with 0.1 mg/ml Collagen Type 1 (Gibco) and rinsed with PBS (Fisher).
MTT assays measure the reduction of yellow, water soluble 3-(4,5-dimethylthiazol-2-yl)-2,5-diphenyltetrazolium bromide (MTT) to blue, insoluble formazan crystals by cellular reductase processes in living cells. Cells were trypsinized from monolayers and seeded in complete medium in 96 well plates. Cancerous cell lines (DU145, DU145-TXR, A2780, A2780-ADR) were seeded at 3,000 cells per well in complete RPMI medium. The non-cancerous HFL1 line was seeded at 4,000 cells per well in complete F12K medium, in collagen-treated plates (Collagen Type 1, Gibco). Cells were incubated with experimental compounds for 48 hours at 37 °C and 5% CO2 in a humidified incubator. At 48 hours, MTT was added (20 µL/well of 5 mg/mL MTT in PBS) to each well. After incubation for 4 hours, the media was removed, and the formazan crystals were dissolved in 100 µL DMSO per well. Plates containing the semi-adherent A2780 or A2780-ADR lines were spun at 1400 rpm for 3 minutes prior to aspiration of media, and the addition of DMSO. Plates were shaken for 10 minutes at 500 rpm on an Orbital shaker (LabDoctor from MidSci, St Louis, MO). The absorbance was measured at 570 nm using a Bio-Tek Cytation 5 (Bio-Tek, Winooski, VT). The measured absorbance value was correlated with the number of metabolically active cells in that well, corrected for absorbance of media. The percent of cell viability (termed ‘survival’ here) was calculated as a percentage of survival of the control condition, which refers to vehicle-treated (DMSO as vehicle) cells, or vehicle-and-chemotherapeutic-treated cells, if testing a compound’s ability to re-sensitize cells to a chemotherapeutic. Percent survival was calculated using the following equation:
% Survival=100 × absorbance of experimental cells/mean absorbance of control treated cells
For DU145-TXR, DU145, HFL1 and A2780 cells – data are the mean ± one standard deviation, 8 samples per compound, from at least two independent trials per compound. […] For A2780-ADR cells, data are the mean ± one standard deviation with 12 samples per compound, from at least two independent trials per compound.
If a P-gp inhibitor is intrinsically toxic to non-cancerous cells, it is more likely to be participating in undesirable off-target interactions. The top compounds from the screens shown above were screened for inherent toxicity using the non-cancerous HFL1 (human lung fibroblast) cell line. HFL1 cells were incubated with 15 µM compound for 48 hours, after which cell viability was assessed using MTT cell viability assays. A 20% reduction in cell viability (compared to DMSO-treated cells) was considered the maximum acceptable toxicity (see dotted line). The chemotherapeutic daunorubicin was included as a positive control for toxicity.
The top compounds from previous screens were tested against the non-cancerous HFL1 cell line.

Series [2] has as its target T1, P-gp (Homo sapiens, UniProt P08183).
T1 construct: The MDR, P-gp overexpressing DU145-TXR cells were maintained under positive selection pressure; endogenous in cells; host or cells: DU145-TXR (paclitaxel-resistant sub-line of DU145 human prostate cancer cells)
As to the kind of experiment: LC-MS/MS intracellular accumulation assay with or without tariquidar (P-gp transport substrate test) in DU145-TXR cells. Type of series: in vitro ADME. The settings on record: for P-gp transport substrate assessment: 5 µM compound with or without 500 nM tariquidar, LC-MS/MS. The protocol: DU145-TXR cells were seeded at 350,000 cells per well in 6-well plates in complete RPMI medium. […] A full sample of DAU was also prepared for quantitative analysis. […] Media was removed with a glass vacuum aspirator. Cells were re-suspended and washed in 2mL of ice-cold Hank’s Balanced Salt Solution (HBSS, Gibco), and spun again at 2400 rpm. Cell lysates were diluted in 600 µL of ice-cold HBSS, flash-frozen in liquid nitrogen, and stored at −80 °C until analysis. LC-MS/MS intracellular accumulation assays were performed in collaboration with the Pharmacology Core at the University of Texas Southwestern Medical Center (UTSW). […] This method allowed us to quantify the change – if any – in the relative amount of compound present in the samples when TQR was added. An increase in the relative amount of compound indicates enhanced intracellular retention that compound. […] The “Internal Standard” (IS) is a known substance added in a constant amount to each sample. The “Peak Area”, expressed as “counts”, describes the number of MS/MS spectra from the experimental compound and serves as a measure of its relative abundance. […] These values allow a comparison of the relative abundance of compound between the “- TQR” and “+ TQR” samples, and to test for statistically significant differences. LC-MS/MS quantification was performed as follows. Cell lysate was aliquoted into Eppendorf tubes. In contrast to [9], blank cell lysates were not spiked with varying concentrations of each compound to create a standard curve, since compound amounts were normalized to abundance of the internal standard. […] The supernatant was then transferred to an HPCL vial, and subsequently analyzed using LC-MS/MS using a Sciex 4000QTRAP mass spectrometer coupled to a Shimadzu Prominence LC. […] The column flow rate was 1.5 ml/min using an Agilent C18 XDB, 5 micron packing 50 × 4.6 mm column. […] A BSA standard curve was then prepared in water and mixed using the same ratio. […] The ratio of Analyte to Internal Standard was normalized to the lysate content for each individual sample. […] Statistical significance was determined using a Student’s T Test in GraphPad Prism. We aimed to identify P-gp inhibitors that are not transport substrates of the pump itself. […] To test these predictions in vitro, liquid chromatography with tandem mass spectrometry (LC-MS/MS) was used to assess the intracellular accumulation of experimental compounds as described in [9]. […] The relative intracellular accumulation of each experimental compound was then assessed using LC-MS/MS. […] The P-gp substrate and chemotherapeutic daunorubicin (DAU) was used as a positive control for P-gp-mediated transport.

Where [3] appears, read: DU145-TXR, 5 µM compound, 2.5 h, with 500 nM tariquidar, mean ± SD, triplicate.
Where [4] appears, read: DU145-TXR, 5 µM compound, 2.5 h, without tariquidar, mean ± SD, triplicate.
The mark [5] stands for this setting: significant difference = likely P-gp transport substrate.

T1 sequence (P08183 whole entry): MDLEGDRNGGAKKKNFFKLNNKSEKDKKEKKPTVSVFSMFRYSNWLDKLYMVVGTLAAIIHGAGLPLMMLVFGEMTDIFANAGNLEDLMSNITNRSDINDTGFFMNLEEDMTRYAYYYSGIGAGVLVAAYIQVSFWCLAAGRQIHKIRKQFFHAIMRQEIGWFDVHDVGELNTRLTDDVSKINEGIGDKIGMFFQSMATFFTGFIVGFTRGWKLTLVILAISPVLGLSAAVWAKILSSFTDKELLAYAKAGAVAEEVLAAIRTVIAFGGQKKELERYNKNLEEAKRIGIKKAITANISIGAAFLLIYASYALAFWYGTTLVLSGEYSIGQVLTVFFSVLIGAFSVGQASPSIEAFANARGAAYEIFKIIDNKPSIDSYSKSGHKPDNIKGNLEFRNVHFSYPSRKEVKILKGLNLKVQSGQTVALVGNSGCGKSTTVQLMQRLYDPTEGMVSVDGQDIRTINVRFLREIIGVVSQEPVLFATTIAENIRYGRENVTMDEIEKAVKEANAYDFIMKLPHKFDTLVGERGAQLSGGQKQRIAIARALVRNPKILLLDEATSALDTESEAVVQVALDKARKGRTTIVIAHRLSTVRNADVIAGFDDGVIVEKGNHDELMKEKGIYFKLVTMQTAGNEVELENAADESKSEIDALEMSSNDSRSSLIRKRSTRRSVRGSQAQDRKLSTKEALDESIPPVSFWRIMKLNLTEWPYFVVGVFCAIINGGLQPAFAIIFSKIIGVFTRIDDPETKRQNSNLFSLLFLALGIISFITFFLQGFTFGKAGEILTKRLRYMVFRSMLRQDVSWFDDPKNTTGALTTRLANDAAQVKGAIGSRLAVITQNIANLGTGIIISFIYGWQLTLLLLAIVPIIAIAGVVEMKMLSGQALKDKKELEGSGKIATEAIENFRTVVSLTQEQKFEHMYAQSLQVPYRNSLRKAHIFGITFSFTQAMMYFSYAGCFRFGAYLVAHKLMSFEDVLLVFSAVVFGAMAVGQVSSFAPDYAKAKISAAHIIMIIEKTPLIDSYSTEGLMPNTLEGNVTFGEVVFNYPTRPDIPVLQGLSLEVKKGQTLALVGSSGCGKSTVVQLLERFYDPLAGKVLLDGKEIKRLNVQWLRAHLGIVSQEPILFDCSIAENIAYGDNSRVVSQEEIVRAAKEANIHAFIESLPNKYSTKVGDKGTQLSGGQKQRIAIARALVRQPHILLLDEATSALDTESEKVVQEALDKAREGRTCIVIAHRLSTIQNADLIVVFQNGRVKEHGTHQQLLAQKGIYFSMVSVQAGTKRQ

Turning to `O=S(=O)(CCSc1nnc(-c2ccccc2)c2ccccc12)c1ccccc1` [Compound 96, O=S(=O)(CCSc1nnc(-c2ccccc2)c2ccccc12)c1ccccc1], in series [1], the “Inherent toxicity to non-cancerous HFL1 cells” value is on record as “either ‘non-toxic’ or ‘within acceptable limits’ of toxicity”, the “Mean % Survival” value is recorded as 92.7% and the “% Survival (individual sample)” value is reported as 91%. The “P-gp transport substrate assessment” value in series [2] (DU145-TXR, 2.5 h) is on record as “unlikely to be transport substrates of P-gp”. Besides, in series [2] (setting [3]), the “Intracellular accumulation (normalized ratio of compound to internal standard), Trial 1, + TQR” value is 0.092 ± 0.036 and the “Intracellular accumulation (normalized ratio of compound to internal standard), Trial 2, + TQR” value came out at 0.163 ± 0.032. Also, in series [2] (setting [4]), the “Intracellular accumulation (normalized ratio of compound to internal standard), Trial 1, - TQR” value was 0.087 ± 0.009 and the “Intracellular accumulation (normalized ratio of compound to internal standard), Trial 2, - TQR” value was 0.121 ± 0.005. Also, in series [2] (Student's T test of the mean), the “P (- TQR vs + TQR), Trial 1” value turned out to be 0.8 and the “P (- TQR vs + TQR), Trial 2” value stood at 0.09. Moreover, in series [2] (setting [5]), the “Significance of accumulation with tariquidar, Trial 1” value (shortened to “Significance … Trial 1”) is “N.S. (P > 0.05 = not significant (N.S.))” and the “Significance of accumulation with tariquidar, Trial 2” value (from here on “Significance … Trial 2”) is “N.S. (P > 0.05 = not significant (N.S.))”.
For the molecule `O=S(=O)(Cc1nc2ccccc2n1CC(O)c1ccc(Cl)cc1)c1ccccc1` (stereo not drawn) [Compound 97, OC(Cn1c(CS(=O)(=O)c2ccccc2)nc2ccccc12)c1ccc(Cl)cc1], in series [1], the “Inherent toxicity to non-cancerous HFL1 cells” value is given as “either ‘non-toxic’ or ‘within acceptable limits’ of toxicity”, the “Mean % Survival” value is given as 84.9% and the “% Survival (individual sample)” value is given as 85%. For the same molecule, in series [2] (DU145-TXR, 2.5 h), the “P-gp transport substrate assessment” value was “unlikely to be transport substrates of P-gp”. Besides, in series [2] (setting [3]), the “Intracellular accumulation (normalized ratio of compound to internal standard), Trial 1, + TQR” value was 0.08 ± 0.03 and the “Intracellular accumulation (normalized ratio of compound to internal standard), Trial 2, + TQR” value came to 0.10 ± 0.02. In addition, in series [2] (setting [4]), the “Intracellular accumulation (normalized ratio of compound to internal standard), Trial 1, - TQR” value turned out to be 0.07 ± 0.02 and the “Intracellular accumulation (normalized ratio of compound to internal standard), Trial 2, - TQR” value is on record as 0.10 ± 0.02. Further, in series [2] (Student's T test of the mean), the “P (- TQR vs + TQR), Trial 1” value was 0.7 and the “P (- TQR vs + TQR), Trial 2” value is recorded as above 1. In series [2] (setting [5]), the “Significance … Trial 1” value is listed as “N.S. (P > 0.05 = not significant (N.S.))” and the “Significance … Trial 2” value is “N.S. (P > 0.05 = not significant (N.S.))”.
For `COc1cccc(N2CCN(c3ccc4nnc(CCC(=O)Nc5ccc(F)c(F)c5)n4n3)CC2)c1` [Compound 101, COc1cccc(c1)N1CCN(CC1)c1ccc2nnc(CCC(=O)Nc3ccc(F)c(F)c3)n2n1], in series [1], the “Inherent toxicity to non-cancerous HFL1 cells” value is reported as “either ‘non-toxic’ or ‘within acceptable limits’ of toxicity”, the “Mean % Survival” value was found to be 100.9% and the “% Survival (individual sample)” value was found to be 103%. Moreover, the “P-gp transport substrate assessment” value in series [2] (DU145-TXR, 2.5 h) is given as “unlikely to be transport substrates of P-gp”. Moreover, in series [2] (setting [3]), the “Intracellular accumulation (normalized ratio of compound to internal standard), Trial 1, + TQR” value was found to be 12.03 ± 2.45 and the “Intracellular accumulation (normalized ratio of compound to internal standard), Trial 2, + TQR” value amounted to 22.88 ± 2.92. In series [2] (setting [4]), the “Intracellular accumulation (normalized ratio of compound to internal standard), Trial 1, - TQR” value was determined as 11.86 ± 1.16 and the “Intracellular accumulation (normalized ratio of compound to internal standard), Trial 2, - TQR” value turned out to be 21.17 ± 3.59. Moreover, in series [2] (Student's T test of the mean), the “P (- TQR vs + TQR), Trial 1” value worked out at 0.9 and the “P (- TQR vs + TQR), Trial 2” value worked out at 0.6. Besides, in series [2] (setting [5]), the “Significance … Trial 1” value was “N.S. (P > 0.05 = not significant (N.S.))” and the “Significance … Trial 2” value is “N.S. (P > 0.05 = not significant (N.S.))”.
In the case of `Cc1ccc(-c2noc(-c3cn(Cc4ccc(NS(=O)(=O)c5ccccc5F)cc4)cn3)n2)cc1` [Compound 103, Cc1ccc(cc1)-c1noc(n1)-c1cn(Cc2ccc(NS(=O)(=O)c3ccccc3F)cc2)cn1], in series [1], the “Inherent toxicity to non-cancerous HFL1 cells” value is listed as “either ‘non-toxic’ or ‘within acceptable limits’ of toxicity” and the “Mean % Survival” value is on record as 93.4%. In addition, the “P-gp transport substrate assessment” value in series [2] (DU145-TXR, 2.5 h) is “potential P-gp transport substrates”. Also, in series [2] (setting [3]), the “Intracellular accumulation (normalized ratio of compound to internal standard), Trial 1, + TQR” value is recorded as 5.61 ± 1.34; the “Intracellular accumulation (normalized ratio of compound to internal standard), Trial 2, + TQR” value is listed as 3.75 ± 0.34; the “Intracellular accumulation (normalized ratio of compound to internal standard), Trial 3, + TQR” value turned out to be 3.73 ± 0.15. Further, in series [2] (setting [4]), the “Intracellular accumulation (normalized ratio of compound to internal standard), Trial 1, - TQR” value is reported as 5.13 ± 0.6; the “Intracellular accumulation (normalized ratio of compound to internal standard), Trial 2, - TQR” value stood at 2.63 ± 0.52; the “Intracellular accumulation (normalized ratio of compound to internal standard), Trial 3, - TQR” value is given as 3.21 ± 0.23. In addition, in series [2] (Student's T test of the mean), the “P (- TQR vs + TQR), Trial 1” value was found to be 0.6; the “P (- TQR vs + TQR), Trial 2” value is given as 0.04; the “P (- TQR vs + TQR), Trial 3” value is given as 0.03. In series [2] (setting [5]), the “Significance … Trial 1” value is on record as “N.S. (P > 0.05 = not significant (N.S.))”; the “Significance … Trial 2” value was “* (P < 0.05 = *)”; the “Significance of accumulation with tariquidar, Trial 3” value is on record as “* (P < 0.05 = *)”.
